# Laboratory results published in patent publication US12234477B2, “Scalable primate pluripotent stem cell aggregate suspension culture” (ViaCyte, Inc., priority 2008, dated 2025).
# Entries after “also recorded” stand apart in the source; their conditions may differ.
# B1: noggin: recombinant human Noggin, BMP antagonist (protein, UniProt Q13253 28-232, looked up)
# Noggin: QHYLHIRPAPSDNLPLVDLIEHPDPIFDPKEKDLNETLLRSLLGGHYDPGFMATSPPEDRPGGGGGAAGGAEDLAELDQLLRQRPSGAMPSEIKGLEFSEGLAQGKKQRLSKKLRRKLQMWLWSQTFCPVLYAWNDLGSRFWPRYVKVGSCFSKRSCSVPEGMVCKPSKSVHLTVLRWRCQRRGGQRCGWIPIQYPIISECKCSC
# Columns and labels:
# R1 mouse ES cells = experiment: Inhibition of ErbB1 and ErbB2 signaling in mouse ES cells, alkaline phosphatase staining; type: cell-based
# Description: AG1478 and AG879 were used to examine the role of HRG/ErbB signaling in mouse ES cells. R1 mouse ES cells were maintained in standard conditions in DMEM, 10% FBS, 10% KSR, 0.5 U/mL penicillin, 0.5 U/mL streptomycin, 1×NEAA, 1 mM sodium pyruvate, 1000 U/mL LIF (ESGRO), 0.1 mM β-ME, and were passaged with 0.5% trypsin/EDTA. 2×10^5 cells/well were plated in 6 well trays on […]™ diluted at 1:1000. The day after plating, DMSO (carrier control), 1-50 μM AG1478, or 1-50 μM AG879 was added with fresh medium. The cells were cultured an additional 8 days, with daily media changes. The cultures were then fixed and stained for alkaline phosphatase activity.
# BG01v cells = experiment: Inhibition of proliferation of BG01v cells by ErbB tyrosine kinase inhibitors, alkaline phosphatase staining; type: cell-based
# Description: To examine the effect of known inhibitors of ErbB tyrosine kinases in hESCs, BG01v cells were plated in 6 well trays on […]™ diluted at 1:1000, in defined culture medium (DC) containing 100 ng/mL LongR3-IGF1, 8 ng/mL FGF2 and 1 ng/mL Activin A. On the next day, DMSO (carrier control), 50 nM-20 μM AG1478 (an ErbB1 inhibitor), or 100 nM-20 μM AG879 (an ErbB2 inhibitor) was added with fresh medium. The cells were cultured for an additional 5 days, with daily media changes. The cultures were then fixed and stained for alkaline phosphatase activity.
# hESCs = experiment: hESC proliferation at physiological levels of insulin and IGF1, cell counting; type: cell-based, human; conditions: titrated about 0.2 to about 200 ng/mL, counting after 5 days
# Description: Essentially all of the reported culture conditions for hESCs to date include supraphysiological levels of insulin, which can stimulate both IR and IGF1R. To distinguish the activities that insulin and insulin-substitutes exert, compared to IGF1, hESCs are cultured in defined media conditions in physiological levels of these growth factors. The concentrations of insulin and IGF1 are titrated from about 0.2 to about 200 ng/mL and cell proliferation is monitored by counting cells after 5 days. Cultures that expand successfully are serially passaged 5 times.
# BG02 cells = experiment: Suspension aggregates of BG02 cells in DC-HAIF with and without Y27632, cell counting; type: cell-based, human
# Description: To attenuate the loss of cells after initial passaging in suspension, an inhibitor of apoptosis was added to the medium. Cells were passaged as in Example 12, except that Y-27632, an inhibitor of p160-Rho-associated coiled-coil kinase (ROCK), was added to the medium.
# Suspension aggregates of BG02 cells were formed by seeding 2×10^6 single cells in 6-well dishes in 3 mL DC-HAIF medium, at 100 rpm on a rotating platform in an incubator (Table 4, Experiment A). 10 μM Y27632 ROCK inhibitor was added to test wells for the course of the experiment and the cultures observed daily and counted after 24 hours (day 1) and after 4 or 5 days. […] Cell counting confirmed that more viable cells were present in the presence of inhibitor (Table 4, Experiment A). This difference in cell number persisted throughout the course of the culture period, with more cells also observed on day 4, compared to cultures without inhibitor. As with previous suspension culture experiments, cells exposed to Y27632 could also be serially passaged, and maintained in an undifferentiated state (not shown). […]
# Because of the enhanced survival and aggregation observed in the presence of Y27632, an experiment was performed to examine if it was possible to reduce the number of cells used to seed suspension cultures (Table 4, Experiment C). […] To determine if addition of a ROCK inhibitor would allow cell seeding at lower densities, a range of cell concentrations (from about 2×10^6 total cells down to about 1×10^5 total cells was used to seed suspension cultures in 6-well trays cells in 3 mL DC-HAIF. 10 μM Y27632 was added to all conditions, and the cell number and viability assessed on day 5. Successful aggregation and expansion was observed even at low seeding densities. An approximately 13 fold expansion of viable cells was observed even in cultures that were only seeded with 1×10^5 cells. Inhibition of ROCK with Y27632 therefore facilitated initial survival of hESCs at much lower densities in this suspension system.
# ES cells = experiment: Suspension cultures in various media, cell counting; type: cell-based; conditions: in all conditions (HAIF, HAI, HI)
# Description: To determine if suspensions of ES cells could be cultured in the absence of FGF2 and/or Activin A, ES cells were cultured in a variety of media, with and without these factors. […] In addition, the cells in each media were successfully passaged with no morphological signs of differentiation.
# [1] = test system: hES-derived pancreatic epithelial and endocrine type cells; experiment: Re-aggregation of dissociated stage 4 or stage 5 adherent cultures; type: cell-based, human; conditions: 10 μM
# Description: Adherent cultures at either stage 4 (about d10-d14 into the differentiation protocol; pancreatic epithelial and endocrine type cells) or stage 5 (about day 16 to day 30 into the differentiation protocol; endocrine precursor and endocrine cells) were similarly dissociated into single cells, counted, and pelleted. The cell pellet was then resuspended in DMEM CMRL supplemented Pen/Strep and GLUTAMAX™, and 1X B27-supplement and DNase (50-100 μg/mL, Roche Diagnostics) and 0-2% FBS. […] Cells were equally distributed into 6-well plates and placed on a rotating platform at 100 rpm to 140 rpm form 4 hours to overnight substantially as described above.
# BG02 hESCs = experiment: Proliferation of hESCs growing in conditioned medium (CM) with AG825; type: cell-based
# Excerpt: FIGS. 6A-6F depict the inhibition of proliferation of BG02 cells grown in conditioned media (CM). […] The mean and range of normalized relative intensity is plotted (right).
# (§1) Colony and cell-counting assays confirmed that LongR3-IGF1 and HRG played the major roles in self-renewal and proliferation in the context of one of the embodiments of the present invention (FIG. 6D, FIG. 6E). Phosphorylation of IGF1R, IR, […], ErbB2, and ErbB3 was also observed in both steady-state DC-HAIF cultures, and in starved cultures that were pulsed with DC-HAIF (FIG. 6F).
# ErbB2 = target: T1, ErbB2 (Homo sapiens, UniProt P04626); experiment: Western blotting of ErbB2 autophosphorylation in starved/heregulin pulsed hESCs in DC-HAIF; type: cell-based
# T1 construct: endogenous in cells; host or cells: human embryonic stem cells (hESCs) grown in DC-HAIF
# Excerpt: as §1
# [2] = test system: hES-derived cell aggregates; experiment: QPCR of endocrine progenitor markers after stage 3 with different noggin concentrations; type: cell-based, human; conditions: lower concentration (25 ng/mL vs 50 ng/mL) in stage 3; any given cell density
# Description: Human ES cell aggregates and hES-derived cell aggregates, including d0 cell aggregates produced directly in differentiation media, were generated substantially as described above. After about five (5) days of differentiation through stages 1 and 2, the differentiating cell aggregates were pooled and re-aliquoted into individual wells at different seeding densities, e.g., a 28 mL suspension of foregut endoderm stage cell aggregate suspension was seeded or re-aliquoted at 4, 6, 8 or 10 mL per well (a 2.5-fold range of cell densities). This cell distribution was carried out in duplicate and one set of wells was fed with a stage 3 media (DMEM/PenStrep/GLUTAMAX™+1% B27 supplement (vol/vol)+0.25 uM KAAD-cyclopamine+3 nM TTNPB) containing noggin at 50 ng/mL and the other set of wells contained noggin at 25 ng/mL. Stage 3 proceeded for 3 days with daily media exchange. Cell samples were taken in duplicate for real-time QPCR analysis at the end of the three days of stage 3 (or about day 8) and again at after stage 4 (or about day 14).
# [3] = morphology, alkaline phosphatase activity
# T1 sequence (P04626 23-1255): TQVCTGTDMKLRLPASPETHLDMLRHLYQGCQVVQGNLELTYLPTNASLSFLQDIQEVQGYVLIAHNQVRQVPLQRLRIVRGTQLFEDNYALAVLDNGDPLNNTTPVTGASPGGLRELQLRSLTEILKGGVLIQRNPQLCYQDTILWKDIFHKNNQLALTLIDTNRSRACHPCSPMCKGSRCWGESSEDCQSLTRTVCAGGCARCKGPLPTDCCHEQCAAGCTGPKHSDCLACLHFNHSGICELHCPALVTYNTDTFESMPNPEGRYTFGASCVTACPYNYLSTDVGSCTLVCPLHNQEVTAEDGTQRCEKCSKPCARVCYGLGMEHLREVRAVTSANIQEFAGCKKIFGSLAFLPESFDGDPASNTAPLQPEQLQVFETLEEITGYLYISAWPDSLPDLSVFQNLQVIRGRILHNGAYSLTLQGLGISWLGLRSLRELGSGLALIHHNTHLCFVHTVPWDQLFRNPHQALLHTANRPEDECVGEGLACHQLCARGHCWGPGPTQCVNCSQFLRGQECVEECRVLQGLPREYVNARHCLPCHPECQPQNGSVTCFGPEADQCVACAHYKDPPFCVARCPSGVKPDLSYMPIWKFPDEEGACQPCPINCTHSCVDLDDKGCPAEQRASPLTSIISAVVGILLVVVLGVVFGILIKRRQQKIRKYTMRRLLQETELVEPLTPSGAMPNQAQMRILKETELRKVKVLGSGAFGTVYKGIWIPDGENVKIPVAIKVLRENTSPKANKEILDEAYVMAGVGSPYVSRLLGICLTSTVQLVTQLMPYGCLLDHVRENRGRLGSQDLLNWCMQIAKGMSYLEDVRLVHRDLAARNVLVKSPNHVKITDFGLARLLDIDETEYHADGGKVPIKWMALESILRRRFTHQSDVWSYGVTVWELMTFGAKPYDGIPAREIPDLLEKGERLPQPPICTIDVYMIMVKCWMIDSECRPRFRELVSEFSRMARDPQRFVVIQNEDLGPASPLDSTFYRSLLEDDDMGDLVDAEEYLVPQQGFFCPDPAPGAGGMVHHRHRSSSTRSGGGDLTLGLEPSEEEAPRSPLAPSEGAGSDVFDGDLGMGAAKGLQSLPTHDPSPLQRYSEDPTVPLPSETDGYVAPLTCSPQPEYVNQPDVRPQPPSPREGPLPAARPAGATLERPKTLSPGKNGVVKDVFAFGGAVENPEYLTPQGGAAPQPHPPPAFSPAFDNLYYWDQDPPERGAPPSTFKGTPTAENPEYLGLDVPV
molecule,measurement,setting,value
COc1cc2ncnc(Nc3cccc(Cl)c3)c2cc1OC [AG1478],effect on cell proliferation,"R1 mouse ES cells; 1-50 μM, 8 days, 10% FBS, 10% KSR, LIF",no apparent affect on cell proliferation; also recorded: did not overtly inhibit proliferation
same,effect on cell proliferation,"BG01v cells; 50 nM-20 μM, 5 days",neither DMSO nor AG1478 (50 nM-20 μM) had an apparent affect on cell proliferation; also recorded: did not appear to affect proliferation
IGF1: insulin-like growth factor,expansion of hESC cultures,hESCs,support the expansion of hESC cultures
CC(C)(C)c1cc(/C=C(\C#N)C(N)=S)cc(C(C)(C)C)c1O [AG879],proliferation,"R1 mouse ES cells; 20 μM, 8 days",may have slowed proliferation
same,cell growth,"R1 mouse ES cells; 50 μM, 8 days",substantially inhibited cell growth
same,"concentration required to inhibit proliferation, mESCs relative to BG01v cells",R1 mouse ES cells; mESCs vs BG01v cells grown in defined conditions,~10 ×
same,differentiation of mESCs grown in inhibitor,R1 mouse ES cells; [3],did not appear to differentiate
same,cell growth,"BG01v cells; 5 μM, 5 days",substantially inhibited cell growth; also recorded: substantially slowed cell growth
same,cell death,BG01v cells; 20 μM,caused cell death
same,differentiation of cultures grown in inhibitor,BG01v cells; [3],did not appear to differentiate
C[C@@H](N)[C@H]1CC[C@H](C(=O)Nc2ccncc2)CC1 [Y27632],initial survival and aggregation of hESCs in suspension culture,"BG02 cells; 10 μM, compared to medium without inhibitor",much larger aggregates were formed; also recorded: enhanced initial survival and aggregation of hESCs; also recorded: enhancement of hESC aggregation
same,cell number when the aggregates were split again,"BG02 cells; Expt. A, compared to cultures without inhibitor",almost twice as many cells were observed
same,"differentiation state, RT-PCR of pluripotency markers",BG02 cells; suspension culture in the presence of Y27632,remained undifferentiated
same,yield of cells generated by day 5,ES cells,increased the yield of cells
same,cell survival,[1],supported cell survival
COc1cc(/C=C(\C#N)C(N)=O)cc(CSc2nc3ccccc3s2)c1O [AG825],cell death,BG02 hESCs,without widespread cell death
same,proliferation of hESCs,BG02 hESCs; 50 μM,significantly inhibited proliferation
same,autophosphorylation of ErbB2 at tyrosine-1248,ErbB2,inhibited autophosphorylation of ErbB2 at tyrosine-1248; also recorded: inhibits ErbB2 Y1248 phosphorylation
insulin: protein that binds to the insulin receptor,expansion of hESC cultures,hESCs,do not
B1,"endocrine progenitor cell types, expression of NGN3 and NKX2-2",[2],reduced expression of NGN3 and NKX2-2
